Source: patent US12098144B2, “Piperazine indazole glucocorticoid receptor antagonists” (Corcept Therapeutics Incorporated, priority 2021, dated 2024)

Target: T1, glucocorticoid receptor (Homo sapiens, UniProt P04150)
T1 construct: endogenous in cells; ATCC cat
T1 sequence (P04150 1-777): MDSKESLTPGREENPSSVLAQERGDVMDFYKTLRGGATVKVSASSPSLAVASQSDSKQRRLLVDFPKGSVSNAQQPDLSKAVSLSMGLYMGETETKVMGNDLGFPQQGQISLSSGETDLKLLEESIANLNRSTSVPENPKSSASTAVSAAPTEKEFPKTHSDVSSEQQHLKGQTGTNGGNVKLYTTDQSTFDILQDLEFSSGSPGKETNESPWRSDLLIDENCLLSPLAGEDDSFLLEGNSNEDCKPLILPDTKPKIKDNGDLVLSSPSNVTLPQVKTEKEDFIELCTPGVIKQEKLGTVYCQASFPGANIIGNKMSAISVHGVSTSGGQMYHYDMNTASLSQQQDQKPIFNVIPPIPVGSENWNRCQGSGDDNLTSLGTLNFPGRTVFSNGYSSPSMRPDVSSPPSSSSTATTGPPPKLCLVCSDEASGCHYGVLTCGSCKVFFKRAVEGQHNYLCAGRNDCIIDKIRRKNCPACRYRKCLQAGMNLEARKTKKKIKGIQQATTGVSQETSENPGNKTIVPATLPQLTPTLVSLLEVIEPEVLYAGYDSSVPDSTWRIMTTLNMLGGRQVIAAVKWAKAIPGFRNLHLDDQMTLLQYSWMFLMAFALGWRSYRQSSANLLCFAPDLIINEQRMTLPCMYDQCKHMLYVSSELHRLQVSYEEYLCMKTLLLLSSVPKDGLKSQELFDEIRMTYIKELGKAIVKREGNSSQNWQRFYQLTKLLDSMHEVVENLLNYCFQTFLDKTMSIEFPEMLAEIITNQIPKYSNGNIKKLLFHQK
Experiment: Hep G2 TAT Ki: inhibition of dexamethasone-induced TAT in HepG2 cells (96 well)
Type: cell-based
Conditions: challenge of 100 nM dexamethasone, IC50 converted to Ki by Cheng and Prusoff equation
How it was run: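 Cells lysed 15 min at 4 °C; TAT enzyme reaction 2 h at 37 °C, stopped with KOH, 30 min further at 37 °C. Inhibition fitted to 4-parameter logistic.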

Compound | Ki [nM]
CCCn1ncc(S(=O)(=O)N2CCN(CC(C)C)C(c3cc4cnn(-c5ccc(F)cc5)c4cc3C)C2)n1 (stereo not shown) [Example 41, 1-(4-fluorophenyl)-5-(1-isobutyl-4-((2-propyl-2H-1,2,3-triazol-4-yl)sulfonyl)piperazin-2-yl)-6-methyl-1H-indazole] | 60
Cc1cc2c(cnn2-c2ccc(F)cc2)cc1C1CN(S(=O)(=O)c2cnn(C)n2)CCN1CC1CC(F)(F)C1 (single isomer, unassigned) [Example 75, 5-(1-((3,3-difluorocyclobutyl)methyl)-4-((2-methyl-2H-1,2,3-triazol-4-yl)sulfonyl)piperazin-2-yl)-1-(4-fluorophenyl)-6-methyl-1H-indazole] | 140
Cc1cc2c(cnn2-c2ccc(F)cc2)cc1C1CN(S(=O)(=O)c2cnn(C)n2)CCN1CC1CCOC1 (single isomer, unassigned) [Example 85, 1-(4-fluorophenyl)-6-methyl-5-(4-((2-methyl-2H-1,2,3-triazol-4-yl)sulfonyl)-1-((tetrahydrofuran-3-yl)methyl)piperazin-2-yl)-1H-indazole] | 29
Cc1cc2c(cnn2-c2ccc(F)cc2)cc1C1CN(S(C)(=O)=O)CCN1CC1CCOCC1 (single isomer, unassigned) [Example 30, 1-(4-fluorophenyl)-6-methyl-5-(4-(methylsulfonyl)-1-((tetrahydro-2H-pyran-4-yl)methyl)piperazin-2-yl)-1H-indazole] | 90
Cc1cc2c(cnn2-c2ccc(F)cc2)cc1C1CN(S(=O)(=O)c2ccn(C)n2)CCN1CC(C)C (single isomer, unassigned) [Example 1, 1-(4-fluorophenyl)-5-(1-isobutyl-4-((1-methyl-1H-pyrazol-3-yl)sulfonyl)piperazin-2-yl)-6-methyl-1H-indazole] | 35
Cc1cc2c(cnn2-c2ccc(F)cc2)cc1C1CN(S(=O)(=O)c2cnn(C)n2)CCN1CC1CC(F)(F)C1 (single isomer, unassigned) [Example 76, 5-(1-((3,3-difluorocyclobutyl)methyl)-4-((2-methyl-2H-1,2,3-triazol-4-yl)sulfonyl)piperazin-2-yl)-1-(4-fluorophenyl)-6-methyl-1H-indazole] | 22
Cc1cc2c(cnn2-c2ccc(F)cc2)cc1C1CN(S(=O)(=O)c2cnn(C)n2)CCN1c1ccccc1 (stereo not shown) [Example 86, 1-(4-fluorophenyl)-6-methyl-5-(4-((2-methyl-2H-1,2,3-triazol-4-yl)sulfonyl)-1-phenylpiperazin-2-yl)-1H-indazole] | 180
CC(=O)N1CCN(CC(C)C)C(c2cc3cnn(-c4ccc(F)cc4)c3cc2C)C1 (stereo not shown) [Example 66, 1-(3-(1-(4-fluorophenyl)-6-methyl-1H-indazol-5-yl)-4-isobutylpiperazin-1-yl)ethan-1-one] | 260
CCn1ncc(S(=O)(=O)N2CCN(CC(C)C)C(c3cc4cnn(-c5ccc(F)cc5)c4cc3C)C2)n1 (stereo not shown) [Example 40, 5-(4-((2-ethyl-2H-1,2,3-triazol-4-yl)sulfonyl)-1-isobutylpiperazin-2-yl)-1-(4-fluorophenyl)-6-methyl-1H-indazole] | 53
Cc1ccccc1CN1CCN(S(=O)(=O)c2cnn(C)n2)CC1c1cc2cnn(-c3ccc(F)cc3)c2cc1C (stereo not shown) [Example 71, 1-(4-fluorophenyl)-6-methyl-5-(4-((2-methyl-2H-1,2,3-triazol-4-yl)sulfonyl)-1-(2-methylbenzyl)piperazin-2-yl)-1H-indazole] | 160
COCCn1cc(S(=O)(=O)N2CCN(CC(C)C)C(c3cc4cnn(-c5ccc(F)cc5)c4cc3C)C2)cn1 (single isomer, unassigned) [Example 47, 1-(4-fluorophenyl)-5-(1-isobutyl-4-((1-(2-methoxyethyl)-1H-pyrazol-4-yl)sulfonyl)piperazin-2-yl)-6-methyl-1H-indazole] | 23
Cc1cc2c(cnn2-c2ccc(F)cc2)cc1C1CN(S(=O)(=O)c2cnn(C)n2)CCN1CC1(C#N)CC1 (stereo not shown) [Example 69, 1-((2-(1-(4-fluorophenyl)-6-methyl-1H-indazol-5-yl)-4-((2-methyl-2H-1,2,3-triazol-4-yl)sulfonyl)piperazin-1-yl)methyl)cyclopropane-1-carbonitrile] | 180

The remaining lines, values ahead:

Ki [nM] | Compound
46 | Cc1cc2c(cnn2-c2ccc(F)cc2)cc1C1CN(S(=O)(=O)c2cccnc2C(F)(F)F)CCN1CC(C)C (single isomer, unassigned) [Example 105, 1-(4-fluorophenyl)-5-(1-isobutyl-4-((2-(trifluoromethyl)pyridin-3-yl)sulfonyl)piperazin-2-yl)-6-methyl-1H-indazole]
14 | Cc1cc2c(cnn2-c2ccc(F)cc2)cc1C1CN(S(=O)(=O)c2cnn(C)c2)CCN1CC(C)C(F)(F)F (single isomer, unassigned) [Example 141, 1-(4-fluorophenyl)-6-methyl-5-(4-((1-methyl-1H-pyrazol-4-yl)sulfonyl)-1-(3,3,3-trifluoro-2-methylpropyl)piperazin-2-yl)-1H-indazole]
11 | Cc1ncc(S(=O)(=O)N2CCN(CCC(F)(F)F)C(c3cc4cnn(-c5ccc(F)cc5)c4cc3C)C2)s1 (single isomer, unassigned) [Example 133, 5-((3-(1-(4-fluorophenyl)-6-methyl-1H-indazol-5-yl)-4-(3,3,3-trifluoropropyl)piperazin-1-yl)sulfonyl)-2-methylthiazole]
260 | Cc1cc2c(cnn2-c2ccc(F)cc2)cc1C1CN(S(=O)(=O)c2cnn(C)n2)CCN1CC(C)(C)O (stereo not shown) [Example 162, 1-(2-(1-(4-fluorophenyl)-6-methyl-1H-indazol-5-yl)-4-((2-methyl-2H-1,2,3-triazol-4-yl)sulfonyl)piperazin-1-yl)-2-methylpropan-2-ol]
110 | CC[C@@H](C)N1CCN(S(=O)(=O)c2cnn(C)n2)C[C@@H]1c1cc2cnn(-c3ccc(F)cc3)c2cc1C (stereo in doubt) [Example 122, 5-(1-(sec-butyl)-4-((2-methyl-2H-1,2,3-triazol-4-yl)sulfonyl)piperazin-2-yl)-1-(4-fluorophenyl)-6-methyl-1H-indazole]
19 | Cc1cc2c(cnn2-c2ccc(F)cc2)cc1C1CN(S(=O)(=O)c2cnn(C)n2)CCN1CC1CC(C)(C)C1 (single isomer, unassigned) [Example 119, 5-(1-((3,3-dimethylcyclobutyl)methyl)-4-((2-methyl-2H-1,2,3-triazol-4-yl)sulfonyl)piperazin-2-yl)-1-(4-fluorophenyl)-6-methyl-1H-indazole]
14 | Cc1cc2c(cnn2-c2ccc(F)cc2)cc1C1CN(S(=O)(=O)c2cnn(C)c2)CCN1CCC(F)(F)F (single isomer, unassigned) [Example 128, 1-(4-fluorophenyl)-6-methyl-5-(4-((1-methyl-1H-pyrazol-4-yl)sulfonyl)-1-(3,3,3-trifluoropropyl)piperazin-2-yl)-1H-indazole]
35 | Cc1cc2c(cnn2-c2ccc(F)cc2)cc1C1C(C)N(S(=O)(=O)c2cnn(C)n2)CCN1CC(C)C (stereo not shown) [Example 88, 1-(4-fluorophenyl)-5-(1-isobutyl-3-methyl-4-((2-methyl-2H-1,2,3-triazol-4-yl)sulfonyl)piperazin-2-yl)-6-methyl-1H-indazole]
57 | Cc1cc2c(cnn2-c2ccc(F)cc2)cc1C1CN(S(=O)(=O)c2cnn(C)n2)CCN1CC(C)(C)C (single isomer, unassigned) [Example 161, 1-(4-fluorophenyl)-6-methyl-5-(4-((2-methyl-2H-1,2,3-triazol-4-yl)sulfonyl)-1-neopentylpiperazin-2-yl)-1H-indazole]
22 | Cc1cc2c(cnn2-c2ccc(F)cc2)cc1[C@H]1CN(S(=O)(=O)c2cnn(C)n2)C[C@@H](C)N1CC(C)C (relative stereo) [Example 127]
14 | Cc1ncc(S(=O)(=O)N2CCN(CC3CCC3)C(c3cc4cnn(-c5ccc(F)cc5)c4cc3C)C2)s1 (single isomer, unassigned) [Example 124, 5-((4-(cyclobutylmethyl)-3-(1-(4-fluorophenyl)-6-methyl-1H-indazol-5-yl)piperazin-1-yl)sulfonyl)-2-methylthiazole]
13 | Cc1cc2c(cnn2-c2ccc(F)cc2)cc1C1CN(S(=O)(=O)c2cnn(C)c2C)CCN1CC(C)C(F)(F)F (single isomer, unassigned) [Example 142, 5-(4-((1,5-dimethyl-1H-pyrazol-4-yl)sulfonyl)-1-(3,3,3-trifluoro-2-methylpropyl)piperazin-2-yl)-1-(4-fluorophenyl)-6-methyl-1H-indazole]
74 | Cc1cc2c(cnn2-c2ccc(F)cc2)cc1C1CN(S(=O)(=O)c2nncn2C)CCN1CC(C)C (single isomer, unassigned) [Example 94, 1-(4-fluorophenyl)-5-(1-isobutyl-4-((4-methyl-4H-1,2,4-triazol-3-yl)sulfonyl)piperazin-2-yl)-6-methyl-1H-indazole]
